Among the data in BindingDB's records for doi:10.1021/jm8005838 (Cephalon, 2008) are IC50 values, retold here.

In this test the target is Vascular endothelial growth factor receptor 2 (Homo sapiens, UniProt P35968). The test can be described thus: VEGF-R2 Receptor-Linked Tyrosine Kinase Assay. The protocol:
Compounds were evaluated for their ability to inhibit the kinase activity using an ELISA-based assay. The 96-well microtiter plate is coated with substrate solution. The reaction is initiated by adding recombinant human VEGF-R2 to reaction mixture containing inhibitor compound. After the incubation, the detection antibody, Eu-N1 antiphosphotyrosine (PT66) antibody, was added, and the fluorescence of the resulting solution was measured using the Victor Multilabel Counter.

Chain of Vascular endothelial growth factor receptor 2 (P35968 whole entry): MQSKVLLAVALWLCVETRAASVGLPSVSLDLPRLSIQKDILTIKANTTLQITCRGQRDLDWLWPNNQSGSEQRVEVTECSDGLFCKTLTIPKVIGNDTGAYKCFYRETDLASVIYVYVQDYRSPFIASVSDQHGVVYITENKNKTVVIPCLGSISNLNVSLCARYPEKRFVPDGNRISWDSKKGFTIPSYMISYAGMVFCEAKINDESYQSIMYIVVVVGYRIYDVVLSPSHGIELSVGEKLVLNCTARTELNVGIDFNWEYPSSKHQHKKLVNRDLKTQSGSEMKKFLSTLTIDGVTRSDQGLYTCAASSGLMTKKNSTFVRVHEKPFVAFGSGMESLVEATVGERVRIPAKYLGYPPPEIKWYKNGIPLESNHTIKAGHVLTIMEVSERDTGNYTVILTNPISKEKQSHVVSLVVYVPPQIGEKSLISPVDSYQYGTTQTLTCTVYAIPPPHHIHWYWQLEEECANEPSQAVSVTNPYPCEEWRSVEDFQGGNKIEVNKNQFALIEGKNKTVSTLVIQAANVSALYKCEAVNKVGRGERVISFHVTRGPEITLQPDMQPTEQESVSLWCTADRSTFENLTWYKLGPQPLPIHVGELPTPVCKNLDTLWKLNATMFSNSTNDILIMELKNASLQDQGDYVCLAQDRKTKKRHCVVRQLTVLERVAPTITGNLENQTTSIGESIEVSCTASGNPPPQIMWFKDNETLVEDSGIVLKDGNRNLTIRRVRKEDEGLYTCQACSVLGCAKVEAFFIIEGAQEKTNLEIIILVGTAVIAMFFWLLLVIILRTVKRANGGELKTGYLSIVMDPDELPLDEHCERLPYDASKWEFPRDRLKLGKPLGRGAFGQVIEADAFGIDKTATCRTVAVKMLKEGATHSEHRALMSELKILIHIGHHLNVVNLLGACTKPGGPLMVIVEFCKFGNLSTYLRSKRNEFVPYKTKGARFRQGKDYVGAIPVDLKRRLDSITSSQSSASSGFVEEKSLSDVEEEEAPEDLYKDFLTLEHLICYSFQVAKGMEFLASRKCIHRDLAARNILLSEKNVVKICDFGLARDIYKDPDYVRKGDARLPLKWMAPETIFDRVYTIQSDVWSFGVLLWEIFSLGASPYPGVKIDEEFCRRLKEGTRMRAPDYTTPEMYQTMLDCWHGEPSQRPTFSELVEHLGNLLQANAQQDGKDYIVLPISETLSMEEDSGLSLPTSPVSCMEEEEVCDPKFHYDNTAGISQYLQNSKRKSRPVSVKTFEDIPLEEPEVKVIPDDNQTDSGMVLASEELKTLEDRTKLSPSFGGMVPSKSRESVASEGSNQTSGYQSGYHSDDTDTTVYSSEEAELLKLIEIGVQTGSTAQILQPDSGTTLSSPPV

Consider `CC(C)Oc1ccc2c(c1)CCc1c-2c2c(c3c4ccccc4n(CCO)c13)CNC2=O` [3-(2-hydroxyethyl)-20-(propan-2-yloxy)-3,13-diazahexacyclo[14.8.0.0^{2,10}.0^{4,9}.0^{11,15}.0^{17,22}]tetracosa-1(16),2(10),4(9),5,7,11(15),17(22),18,20-nonaen-14-one], for which the IC50 (commonly the concentration that inhibits the measured activity by half) turned out to be 3.38 µM. In turn, `COc1ccc2c(c1)CCc1c-2c2c(c3c4ccccc4n(CCO)c13)CNC2=O` [3-(2-hydroxyethyl)-20-methoxy-3,13-diazahexacyclo[14.8.0.0^{2,10}.0^{4,9}.0^{11,15}.0^{17,22}]tetracosa-1(16),2(10),4(9),5,7,11(15),17(22),18,20-nonaen-14-one] had an IC50 of 4.72 µM.
